Reference: ChEMBL document CHEMBL1132776, “(E) -6-(1-alkyloxyiminoalkyl)-5,8-dimethoxy-1,4-naphthoquinones: synthesis, cytotoxic activity and antitumor activity” (2000)
Converted amounts (≈) assume the structure as drawn.

Columns and labels:
L1210 = experiment: The compound was evaluated for antiproliferative activity against L1210 cell line; type: functional; conditions: Mus musculus, read-out: ED50 (the source's name)
Mus musculus = species on record: Mus musculus; experiment: Survival ratio (SR) is the number of mice surviving after 80 days among 8 mice; type: functional
CCRF S-180 = experiment: Percent ratio of treated to control mice after intraperitoneal injection of 1x10E7 S180 cells for antitumor activity was determined; type: functional, Mus musculus
A549 = experiment: The compound was evaluated for antiproliferative activity against A549 cell line; type: functional; conditions: Homo sapiens, read-out: ED50 (the source's name)

Structure (SMILES)	EC50 (L1210)	Survival ratio (Mus musculus)	T/C (CCRF S-180)	EC50 (A549)
CCCO/N=C/c1cc(OC)c2c(c1OC)C(=O)C=CC2=O	0.107 µg/mL (≈ 0.353 µM)	2	229%	> 10 µg/mL
CCCCCCCCCCCCO/N=C/c1cc(OC)c2c(c1OC)C(=O)C=CC2=O	0.311 µg/mL (≈ 0.724 µM)	0	119%	> 10 µg/mL
CCCCCCCO/N=C/c1cc(OC)c2c(c1OC)C(=O)C=CC2=O	0.213 µg/mL (≈ 0.593 µM)	5	355%	> 10 µg/mL
CCCCCC/C(=N\OCCCCC)c1cc(OC)c2c(c1OC)C(=O)C=CC2=O	0.224 µg/mL (≈ 0.539 µM)	5	363%	> 10 µg/mL
CCCCCCCO/N=C(\CCCCCC)c1cc(OC)c2c(c1OC)C(=O)C=CC2=O	0.162 µg/mL (≈ 0.365 µM)	5	375%	> 10 µg/mL
CCCCCCCCCO/N=C(\CCCCCC)c1cc(OC)c2c(c1OC)C(=O)C=CC2=O	1.15 µg/mL (≈ 2.43 µM)	0	96%	> 10 µg/mL
CCCCCCCCCO/N=C/c1cc(OC)c2c(c1OC)C(=O)C=CC2=O	0.19 µg/mL (≈ 0.49 µM)	5	355%	> 10 µg/mL
CO/N=C/c1cc(OC)c2c(c1OC)C(=O)C=CC2=O	0.109 µg/mL (≈ 0.396 µM)	2	318%	> 10 µg/mL
CCCCCO/N=C/c1cc(OC)c2c(c1OC)C(=O)C=CC2=O	0.175 µg/mL (≈ 0.528 µM)	5	388%	> 10 µg/mL
CCCCCC/C(=N\OC)c1cc(OC)c2c(c1OC)C(=O)C=CC2=O	0.192 µg/mL (≈ 0.534 µM)	5	323%	> 10 µg/mL
CCCCCC/C(=N\OCCC)c1cc(OC)c2c(c1OC)C(=O)C=CC2=O	0.166 µg/mL (≈ 0.428 µM)	5	369%	> 10 µg/mL
CCCCCCCCCCCCO/N=C(\CCCCCC)c1cc(OC)c2c(c1OC)C(=O)C=CC2=O	0.193 µg/mL (≈ 0.376 µM)	2	231%	> 10 µg/mL
COc1cc(/C=N/OCc2ccccc2)c(OC)c2c1C(=O)C=CC2=O	0.264 µg/mL (≈ 0.751 µM)	4	331%	> 10 µg/mL
COc1cccc2c1C(=O)c1c(O)c3c(c(O)c1C2=O)C[C@@](O)(C(=O)CO)C[C@@H]3O[C@H]1C[C@H](N)[C@H](O)[C@H](C)O1 [DOXORUBICIN]	0.016 µg/mL (≈ 0.0294 µM)	3	315%	1.01 µg/mL (≈ 1.86 µM)
